{"source": "patent US20040063167A1", "about": "“Minimising calibration problems of in vivo glucose sensors” (priority 2002, published 2004)", "origin": "cited, not measured here", "tested_on": "animal, plant and bacterial cells in culture", "data": [{"smiles": "OO", "note": "[H2O2, Hydrogen peroxide]", "values": [{"measurement": "levels of H2O2 that seem to have limited cytotoxicity", "setting": "many cell types, \"at or below about\"", "value": "20 to 50", "unit": "µM"}, {"measurement": "levels of H2O2 described as being cytotoxic", "setting": "wide range of animal, plant and bacterial cells in culture, \"usually\"", "value": "≥ 50", "unit": "µM"}]}]}
